Laboratory results taken from the NIST ThermoML archive (doi:10.1016/j.jct.2019.03.040).
Numbers after ± are expanded uncertainties.

Tests used:
[1] = Liquid; for thermal diffusivity: 101.33 kPa, Laser flash apparatus
[2] = molar heat capacity at constant pressure; conditions: 101.33 kPa, Liquid, Small sample (50 mg) DSC

## CCCCOC(=O)CCC(C)=O [butyl levulinate]
[1]; 303.15 K
  thermal diffusivity: 7.77e-08 ± 4.2e-09 m2/s
[1]; 313.15 K
  thermal diffusivity: 7.68e-08 ± 4.1e-09 m2/s
[1]; 323.15 K
  thermal diffusivity: 7.57e-08 ± 4.1e-09 m2/s
[1]; 333.15 K
  thermal diffusivity: 7.48e-08 ± 4e-09 m2/s
[1]; 343.15 K
  thermal diffusivity: 7.37e-08 ± 4e-09 m2/s
[1]; 353.15 K
  thermal diffusivity: 7.26e-08 ± 3.9e-09 m2/s
[1]; 363.15 K
  thermal diffusivity: 7.15e-08 ± 3.8e-09 m2/s
[1]; 373.15 K
  thermal diffusivity: 7.06e-08 ± 3.8e-09 m2/s
[1]; Resistive pulse heating
  Critical pressure: 2410 ± 80 kPa
  Critical temperature: 692 ± 7 K
[2]; 302.66 K
  molar heat capacity at constant pressure: 336.87 ± 8.3 J/K/mol
[2]; 303.16 K
  molar heat capacity at constant pressure: 337.38 ± 8.3 J/K/mol
[2]; 303.66 K
  molar heat capacity at constant pressure: 338.59 ± 8.3 J/K/mol
[2]; 304.16 K
  molar heat capacity at constant pressure: 338.42 ± 8.3 J/K/mol
[2]; 304.66 K
  molar heat capacity at constant pressure: 337.73 ± 8.3 J/K/mol
[2]; 305.16 K
  molar heat capacity at constant pressure: 337.38 ± 8.3 J/K/mol
[2]; 305.66 K
  molar heat capacity at constant pressure: 337.73 ± 8.3 J/K/mol
[2]; 306.16 K
  molar heat capacity at constant pressure: 337.55 ± 8.3 J/K/mol
[2]; 306.66 K
  molar heat capacity at constant pressure: 338.42 ± 8.3 J/K/mol
[2]; 307.16 K
  molar heat capacity at constant pressure: 339.28 ± 8.3 J/K/mol
[2]; 307.66 K
  molar heat capacity at constant pressure: 338.76 ± 8.3 J/K/mol
[2]; 308.16 K
  molar heat capacity at constant pressure: 337.9 ± 8.3 J/K/mol
[2]; 308.66 K
  molar heat capacity at constant pressure: 338.24 ± 8.3 J/K/mol
[2]; 309.16 K
  molar heat capacity at constant pressure: 338.42 ± 8.3 J/K/mol
[2]; 309.66 K
  molar heat capacity at constant pressure: 339.1 ± 8.3 J/K/mol
[2]; 310.16 K
  molar heat capacity at constant pressure: 338.93 ± 8.3 J/K/mol
[2]; 310.66 K
  molar heat capacity at constant pressure: 340.14 ± 8.3 J/K/mol
[2]; 311.16 K
  molar heat capacity at constant pressure: 338.76 ± 8.3 J/K/mol
[2]; 311.66 K
  molar heat capacity at constant pressure: 338.59 ± 8.3 J/K/mol
[2]; 312.16 K
  molar heat capacity at constant pressure: 338.76 ± 8.3 J/K/mol
[2]; 312.66 K
  molar heat capacity at constant pressure: 338.76 ± 8.3 J/K/mol
[2]; 313.16 K
  molar heat capacity at constant pressure: 338.42 ± 8.3 J/K/mol
[2]; 313.66 K
  molar heat capacity at constant pressure: 338.76 ± 8.3 J/K/mol
[2]; 314.16 K
  molar heat capacity at constant pressure: 339.97 ± 8.3 J/K/mol
[2]; 314.66 K
  molar heat capacity at constant pressure: 339.79 ± 8.3 J/K/mol
[2]; 315.16 K
  molar heat capacity at constant pressure: 339.97 ± 8.3 J/K/mol
[2]; 315.66 K
  molar heat capacity at constant pressure: 339.62 ± 8.3 J/K/mol
[2]; 316.16 K
  molar heat capacity at constant pressure: 340.31 ± 8.3 J/K/mol
[2]; 316.66 K
  molar heat capacity at constant pressure: 340.14 ± 8.3 J/K/mol
[2]; 317.16 K
  molar heat capacity at constant pressure: 340.65 ± 8.3 J/K/mol
[2]; 317.66 K
  molar heat capacity at constant pressure: 340.65 ± 8.3 J/K/mol
[2]; 318.16 K
  molar heat capacity at constant pressure: 341.17 ± 8.4 J/K/mol
[2]; 318.66 K
  molar heat capacity at constant pressure: 341 ± 8.4 J/K/mol
[2]; 319.16 K
  molar heat capacity at constant pressure: 341.17 ± 8.4 J/K/mol
[2]; 319.66 K
  molar heat capacity at constant pressure: 341 ± 8.4 J/K/mol
[2]; 320.16 K
  molar heat capacity at constant pressure: 340.14 ± 8.3 J/K/mol
[2]; 320.66 K
  molar heat capacity at constant pressure: 341.69 ± 8.4 J/K/mol
[2]; 321.16 K
  molar heat capacity at constant pressure: 341.69 ± 8.4 J/K/mol
[2]; 321.66 K
  molar heat capacity at constant pressure: 341 ± 8.4 J/K/mol
[2]; 322.16 K
  molar heat capacity at constant pressure: 341 ± 8.4 J/K/mol
[2]; 322.66 K
  molar heat capacity at constant pressure: 341.69 ± 8.4 J/K/mol
[2]; 323.16 K
  molar heat capacity at constant pressure: 342.03 ± 8.4 J/K/mol
[2]; 323.66 K
  molar heat capacity at constant pressure: 342.38 ± 8.4 J/K/mol
[2]; 324.16 K
  molar heat capacity at constant pressure: 341.69 ± 8.4 J/K/mol
[2]; 324.66 K
  molar heat capacity at constant pressure: 342.89 ± 8.4 J/K/mol
[2]; 325.16 K
  molar heat capacity at constant pressure: 342.2 ± 8.4 J/K/mol
[2]; 325.66 K
  molar heat capacity at constant pressure: 341.52 ± 8.4 J/K/mol
[2]; 326.16 K
  molar heat capacity at constant pressure: 342.2 ± 8.4 J/K/mol
[2]; 326.66 K
  molar heat capacity at constant pressure: 343.24 ± 8.4 J/K/mol
[2]; 327.16 K
  molar heat capacity at constant pressure: 342.89 ± 8.4 J/K/mol
[2]; 327.66 K
  molar heat capacity at constant pressure: 343.07 ± 8.4 J/K/mol
[2]; 328.16 K
  molar heat capacity at constant pressure: 343.41 ± 8.4 J/K/mol
[2]; 328.66 K
  molar heat capacity at constant pressure: 341.34 ± 8.4 J/K/mol
[2]; 329.16 K
  molar heat capacity at constant pressure: 341.86 ± 8.4 J/K/mol
[2]; 329.66 K
  molar heat capacity at constant pressure: 342.38 ± 8.4 J/K/mol
[2]; 330.16 K
  molar heat capacity at constant pressure: 342.89 ± 8.4 J/K/mol
[2]; 330.66 K
  molar heat capacity at constant pressure: 342.89 ± 8.4 J/K/mol
[2]; 331.16 K
  molar heat capacity at constant pressure: 343.07 ± 8.4 J/K/mol
[2]; 331.66 K
  molar heat capacity at constant pressure: 342.38 ± 8.4 J/K/mol
[2]; 332.16 K
  molar heat capacity at constant pressure: 342.72 ± 8.4 J/K/mol
[2]; 332.66 K
  molar heat capacity at constant pressure: 343.58 ± 8.4 J/K/mol
[2]; 333.16 K
  molar heat capacity at constant pressure: 343.24 ± 8.4 J/K/mol
[2]; 333.66 K
  molar heat capacity at constant pressure: 344.27 ± 8.4 J/K/mol
[2]; 334.16 K
  molar heat capacity at constant pressure: 345.13 ± 8.4 J/K/mol
[2]; 334.66 K
  molar heat capacity at constant pressure: 344.44 ± 8.4 J/K/mol
[2]; 335.16 K
  molar heat capacity at constant pressure: 345.48 ± 8.4 J/K/mol
[2]; 335.66 K
  molar heat capacity at constant pressure: 344.79 ± 8.4 J/K/mol
